Assays:
CEM = assay: inhibition of tumour cell proliferation; assay type: cell-based, humaine; conditions: Homo sapiens, CCRF-CEM, mean of at least two experiments, read-out: ID50 (dose d'inhibition du développement cellulaire de 50 %)
L1210/0 = assay: inhibition of tumour cell proliferation; assay type: cell-based, murine; conditions: Mus musculus, mean of at least two experiments, read-out: ID50 (dose d'inhibition du développement cellulaire de 50 %)
MOLT/4F = assay: inhibition of tumour cell proliferation; assay type: cell-based, humaine; conditions: Homo sapiens, mean of at least two experiments, read-out: ID50 (dose d'inhibition du développement cellulaire de 50 %)
L1210/BdUrd = assay: inhibition of tumour cell proliferation; assay type: cell-based, murine; conditions: Mus musculus; L1210/BdUrd (résistant à BdUrd); mean of at least two experiments; read-out: ID50 (dose d'inhibition du développement cellulaire de 50 %)
MT4 = assay: inhibition of tumour cell proliferation; assay type: cell-based, humaine; conditions: Homo sapiens, mean of at least two experiments, read-out: ID50 (dose d'inhibition du développement cellulaire de 50 %)
[1] = target: T1, réverse transcriptase de HIV1 (Human immunodeficiency virus type 1 group M subtype B, UniProt P03366); assay: inhibition of exogenous reverse transcription, poly(A) template with oligo(dT)12-18 primer (Example 2); assay type: biochemical
T1 construct: La réverse transcriptase de HIV1 ci-après abrégé RT a été partiellement purifiée; endogenous in cells; host or cells: HUT-78/HTLV-IIIb producer cell line; virus particles pelleted at 100,000 g and solubilised with Triton X-100
Description: Dans les exemples qui vont suivre les α oligodésoxynucléotides α-dT, α-dT₂, α-dT₄, α-dT₆, α-dT₈, α-dT₁₀, α-dT₁₂, α-dT₁₄, α-dT₁₆ ont été dissous dans de l'eau stérilisée pour les essais de réverse transcriptase. Les concentrations ont été déterminées par spectrophotométrie (coefficient d'absorption molaire : 8880, 17760, 35520, 61800, 70000, 83300, 88800, 109800 et 138400, respectivement). Les α oligodésoxynucléotides α-dC₂₀ et α-dC₃₀ ont été dissous dans de l'eau distillée et les concentrations ont été déterminées également par spectrophotométrie (coefficient d'absorption molaire 178000 et 267000, respectivement). Les solutions étaient conservées à -20° C jusqu'à leur utilisation.
Les réactions de transcription inverse ont été effectuées avec des virus HIV dont partiellement purifiées. Les fluides de culture provenant d'une lignée cellulaire produisant un HUT-78/HTLV-IIIb ont été purifiés par centrifugation à basse vitesse. Des particules virales ont été sédimentées par centrifugation à 100.000 g pendant 30 minutes. Le Pellet viral a été incubé sur glace pendant 30 minutes avec un tampon de solubilisation contenant du triton X-100 0,1 % du dithiothréitol 1mM et du glycérol 50 % et conservé dans des aliquots à -70°C jusqu'à utilisation. Les effets inhibiteurs des α oligodésoxynucléotides contenant des bases thymine sur la réaction de transcription inverse ont été effectués avec une matrice polyrA exogène et un α oligodT₁₂₋₁₈ . Le mélange de réaction (50 µl) contenait du Tris-HCl 50 mM (pH 7,8), du dithiothréitol 5mM, du glutathione 300 µM, du EGTA 500 µM et du KCl 150 mM, du MgCl₂ 5 mM, et 1,25 µg de sérum albumine de bovin, et 1 µM de (méthyl-³H) dTTP (radioactivité spécifique 30 Ci/mmol.) (5 µCi), le mélange comportait également 4,4 µg/ml de polyrA, 7,5 µM d'oligodT et du triton X-100 0,03 %, et 10 µl de solution de composé,(contenant des concentrations variables des composés) et 10 µl de préparation de réverse transcriptase. Les effets inhibiteurs sur la transcription de HIV à l'aide de α-dC₂₀ et α-dC₃₀ ont été déterminés en utilisant une matrice exogène polyI (50 µg/ml) tandis que le mélange oligodC₁₂₋₁₈ servait d'amorce (0,44 U/ml). Le mélange de réaction avec le système polyI.oligodC contenait des réactifs décrits pour le système polyrA. oligodT mais les concentrations de MgCl et KCI ont été ajustées à 2,5 mM et […], respectivement, tandis que le dTTP trifié a été substitué par le (méthyl-³H)dCTP (radioactivité spécifique 19,5 Ci/mmol) (5 µCi). Les mélanges de réactions ont été incubés à 37°C pendant 0 à 60 minutes à quel moment 100 µl d'ADN de thymus de veau (150 µg/ml), 2 ml de Na₄P₂O₇ (0,1 M dans HCL 1 N) et 2 ml de TCA (10 % v/v) ont été ajoutés. Les solutions ont été gardées sur glace pendant au moins 30 minutes, après lesquelles la matière acide insoluble a été lavée et analysée quant à sa radioactivité.
La réverse transcriptase de HIV1 ci-après abrégé RT a été partiellement purifiée et les oligomères α ont été étudiés en fonction de leur faculté à servir d'amorce sur une matrice poly(A) dans une réaction de transcription inverse exogène.
Ces pourcentages ont été calculés de la même manière que précédemment par mesure de radioactivité, laquelle indique la quantité d'incorporation de méthyl ³H dTTP (valeurs en Cpm).

Compound	IC50 (CEM) [µM]	IC50 (L1210/0) [µM]	IC50 (MOLT/4F) [µM]	IC50 (L1210/BdUrd) [µM]	IC50 (MT4) [µM]	pourcentages d'inhibitions de la réaction exogène de transcription inverse ([1]; 0.16 uM oligomer, 7,5 μM oligo(dT)12-18 primer) [%]	pourcentages d'inhibitions de la réaction exogène de transcription inverse ([1]; 0.8 uM oligomer, 7,5 μM oligo(dT)12-18 primer) [%]	pourcentages d'inhibitions de la réaction exogène de transcription inverse ([1]; 4 uM oligomer, 7,5 μM oligo(dT)12-18 primer) [%]	pourcentages d'inhibitions de la réaction exogène de transcription inverse ([1]; 20 uM oligomer, 7,5 μM oligo(dT)12-18 primer) [%]	pourcentages d'inhibitions de la réaction exogène de transcription inverse ([1]; 100 uM oligomer, 7,5 μM oligo(dT)12-18 primer) [%]	EC50 ([1]; 7,5 μM oligo(dT)12-18 primer, poly(A) template, read-out: ED50 (dose requise pour inhiber la réaction de transcription inverse de 50 %)) [µM]	inhibition de la réaction de transcription inverse ([1]; result in words, in presence of primer βdT₁₂₋₁₈)
Cc1cn([C@@H]2C[C@H](O)[C@@H](CO)O2)c(=O)[nH]c1=O [α-2'-dThd]	> 500	> 500	> 500	> 500	> 500							
Nc1ccn([C@@H]2C[C@H](O)[C@@H](CO)O2)c(=O)n1 [α-2'-dC]	> 500	> 500	> 500	> 500	> 500							
Nc1ncnc2c1ncn2[C@@H]1C[C@H](O)[C@@H](CO)O1 [α-2'-dAdo]	> 500	> 500	> 500	> 500	> 500							
Nc1nc2c(ncn2[C@H]2C[C@H](O)[C@@H](CO)O2)c(=O)[nH]1 [β dGuo, reference compound]	22.1 ± 0.6	58.2 ± 10.9	79.5 ± 9.2	55.5 ± 6.8	55.3 ± 5.3							
Cc1cn([C@@H]2C[C@H](O)[C@@H](CO)O2)c(=O)[nH]c1=O [αdT]						22	8	19	46	23	> 100	aucune inhibition significative
Nc1ncnc2c1ncn2[C@H]1C[C@H](O)[C@@H](CO)O1 [β dAdo, reference compound]	189 ± 19	> 500	> 500	> 500	> 500							
Nc1nc2c(ncn2[C@@H]2C[C@H](O)[C@@H](CO)O2)c(=O)[nH]1 [α-2'-dGuo]	> 500	> 500	> 500	> 500	> 500							
Cc1cn([C@H]2C[C@H](O)[C@@H](CO)O2)c(=O)[nH]c1=O [β dThd, reference compound]	24.7 ± 3.42	29 ± 1.9	> 500	> 500	191 ± 7							
